Molecular target: T1, human PAH with the R408W mutation (Homo sapiens, UniProt P00439, R408W)
T1 construct: expressed in transfected cells
T1 sequence (P00439 1-452 R408W): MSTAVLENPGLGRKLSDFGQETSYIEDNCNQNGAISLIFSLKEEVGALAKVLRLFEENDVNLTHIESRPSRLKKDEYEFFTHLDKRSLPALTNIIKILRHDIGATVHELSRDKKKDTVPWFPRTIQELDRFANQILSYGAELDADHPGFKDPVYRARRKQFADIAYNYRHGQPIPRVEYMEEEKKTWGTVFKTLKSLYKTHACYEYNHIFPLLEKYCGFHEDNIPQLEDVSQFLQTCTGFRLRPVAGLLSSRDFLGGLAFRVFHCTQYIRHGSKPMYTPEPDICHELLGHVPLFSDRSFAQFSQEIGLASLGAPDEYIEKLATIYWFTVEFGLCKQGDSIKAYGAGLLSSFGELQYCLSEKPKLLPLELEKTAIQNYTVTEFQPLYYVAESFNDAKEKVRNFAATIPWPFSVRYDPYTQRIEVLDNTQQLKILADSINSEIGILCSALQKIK
Test: Cell Based Phenylalanine Flux Assay
Conditions: A375 cells expressing human R408W PAH; 24 hrs compound incubation; 13C-Tyrosine by LC-MS; average where tested multiple times; read-out: AC50

Structure (SMILES) | AC50 [nM]
Cc1nnc(C(=O)N2CCc3[nH]cnc3[C@H]2c2nc3c(F)cccc3s2)o1 [Example 1465, (S)-(4-(4-fluorobenzo[d]thiazol-2-yl)-6,7-dihydro-1H-imidazo[4,5-c]pyridin-5(4H)-yl)(5-methyl-1,3,4-oxadiazol-2-yl)methanone] | 500 to 1000
Cc1nnc(C(=O)N2CCc3[nH]cnc3[C@@H]2c2nc3c(F)cccc3s2)o1 [Example 1466, (R)-(4-(4-fluorobenzo[d]thiazol-2-yl)-6,7-dihydro-1H-imidazo[4,5-c]pyridin-5(4H)-yl)(5-methyl-1,3,4-oxadiazol-2-yl)methanone] | 1000 to 5000
Cc1nc(C(C)(C)O)oc1C(=O)N1CCc2[nH]cnc2[C@H]1c1nc2c(F)cccc2s1 [Example 1471, (S)-(4-(4-fluorobenzo[d]thiazol-2-yl)-6,7-dihydro-1H-imidazo[4,5-c]pyridin-5(4H)-yl)(2-(2-hydroxypropan-2-yl)-4-methyloxazol-5-yl)methanone] | < 500
Cc1nc(C(C)(C)O)oc1C(=O)N1CCc2[nH]cnc2[C@@H]1c1nc2c(F)cccc2s1 [Example 1472, (R)-(4-(4-fluorobenzo[d]thiazol-2-yl)-6,7-dihydro-1H-imidazo[4,5-c]pyridin-5(4H)-yl)(2-(2-hydroxypropan-2-yl)-4-methyloxazol-5-yl)methanone] | 1000 to 5000
CC(C)(O)c1c(Br)ccc2c(C(=O)N3CCc4[nH]cnc4[C@H]3c3nc4ccccc4s3)cnn12 [Example 1475] | < 500
CC(C)(O)c1ncc(C(=O)N2CCc3[nH]cnc3[C@H]2c2nc3c(F)cccc3s2)s1 [Example 1477, (S)-(4-(4-fluorobenzo[d]thiazol-2-yl)-6,7-dihydro-1H-imidazo[4,5-c]pyridin-5(4H)-yl)(2-(2-hydroxypropan-2-yl)thiazol-5-yl)methanone] | < 500
CC(C)(O)c1ncc(C(=O)N2CCc3[nH]cnc3[C@@H]2c2nc3c(F)cccc3s2)s1 [Example 1478, (R)-(4-(4-fluorobenzo[d]thiazol-2-yl)-6,7-dihydro-1H-imidazo[4,5-c]pyridin-5(4H)-yl)(2-(2-hydroxypropan-2-yl)thiazol-5-yl)methanone] | 1000 to 5000
CC(C)(O)c1ncc(C(=O)N2CCc3[nH]cnc3[C@H]2c2nc3c(F)cccc3s2)o1 [Example 1483, (S)-(4-(4-fluorobenzo[d]thiazol-2-yl)-6,7-dihydro-1H-imidazo[4,5-c]pyridin-5(4H)-yl)(2-(2-hydroxypropan-2-yl)oxazol-5-yl)methanone] | 500 to 1000
CC(C)(O)c1ncc(C(=O)N2CCc3[nH]cnc3[C@@H]2c2nc3c(F)cccc3s2)o1 [Example 1484, (R)-(4-(4-fluorobenzo[d]thiazol-2-yl)-6,7-dihydro-1H-imidazo[4,5-c]pyridin-5(4H)-yl)(2-(2-hydroxypropan-2-yl)oxazol-5-yl)methanone] | 1000 to 5000
CC(C)(F)c1ncc(C(=O)N2CCc3[nH]cnc3[C@@H]2c2nc3c(F)cccc3s2)s1 [Example 1485, (R)-(4-(4-fluorobenzo[d]thiazol-2-yl)-6,7-dihydro-1H-imidazo[4,5-c]pyridin-5(4H)-yl)(2-(2-fluoropropan-2-yl)thiazol-5-yl)methanone] | 500 to 1000
CC(C)(F)c1ncc(C(=O)N2CCc3[nH]cnc3[C@H]2c2nc3c(F)cccc3s2)s1 [Example 1486, (S)-(4-(4-fluorobenzo[d]thiazol-2-yl)-6,7-dihydro-1H-imidazo[4,5-c]pyridin-5(4H)-yl)(2-(2-fluoropropan-2-yl)thiazol-5-yl)methanone] | < 500
CC(C)(F)c1ncc(C(=O)N2CCc3[nH]cnc3[C@H]2c2nc3c(F)cccc3s2)o1 [Example 1487, (S)-(4-(4-fluorobenzo[d]thiazol-2-yl)-6,7-dihydro-1H-imidazo[4,5-c]pyridin-5(4H)-yl)(2-(2-fluoropropan-2-yl)oxazol-5-yl)methanone] | < 500
CC(C)(F)c1ncc(C(=O)N2CCc3[nH]cnc3[C@@H]2c2nc3c(F)cccc3s2)o1 [Example 1488, (R)-(4-(4-fluorobenzo[d]thiazol-2-yl)-6,7-dihydro-1H-imidazo[4,5-c]pyridin-5(4H)-yl)(2-(2-fluoropropan-2-yl)oxazol-5-yl)methanone] | 500 to 1000
CC(C)(F)c1ccc2c(C(=O)N3CCc4[nH]cnc4[C@H]3c3nc4c(F)cccc4s3)cnn2c1 [Example 1489, (S)-(4-(4-fluorobenzo[d]thiazol-2-yl)-6,7-dihydro-1H-imidazo[4,5-c]pyridin-5(4H)-yl)(6-(2-fluoropropan-2-yl)pyrazolo[1,5-a]pyridin-3-yl)methanone] | 500 to 1000
CC(C)(F)c1ccc2c(C(=O)N3CCc4[nH]cnc4[C@@H]3c3nc4c(F)cccc4s3)cnn2c1 [Example 1490, (R)-(4-(4-fluorobenzo[d]thiazol-2-yl)-6,7-dihydro-1H-imidazo[4,5-c]pyridin-5(4H)-yl)(6-(2-fluoropropan-2-yl)pyrazolo[1,5-a]pyridin-3-yl)methanone] | 1000 to 5000
Fc1ccc(-c2nnc(N3CCc4[nH]cnc4[C@H]3c3nc4ccccc4s3)o2)cc1 [Example 1491] | < 500
Fc1ccc(-c2nnc(N3CCc4[nH]cnc4[C@@H]3c3nc4ccccc4s3)o2)cc1 [Example 1492, (R)-2-(4-(benzo[d]thiazol-2-yl)-6,7-dihydro-1H-imidazo[4,5-c]pyridin-5(4H)-yl)-5-(4-fluorophenyl)-1,3,4-oxadiazole] | 500 to 1000

Other lines, results leading:

AC50 [nM] | Structure (SMILES)
1000 to 5000 | Cc1cnc(CC(=O)N2CCc3[nH]cnc3[C@@H]2c2nc3ccccc3s2)s1 [Example 1458, (R)-1-(4-(benzo[d]thiazol-2-yl)-6,7-dihydro-1H-imidazo[4,5-c]pyridin-5(4H)-yl)-2-(5-methylthiazol-2-yl)ethanone]
500 to 1000 | O=C(Cc1ncc(C2CC2)s1)N1CCc2[nH]cnc2[C@H]1c1nc2ccccc2s1 [Example 1459]
1000 to 5000 | O=C(Cc1ncc(C2CC2)s1)N1CCc2[nH]cnc2[C@@H]1c1nc2ccccc2s1 [Example 1460, (R)-1-(4-(benzo[d]thiazol-2-yl)-6,7-dihydro-1H-imidazo[4,5-c]pyridin-5(4H)-yl)-2-(5-cyclopropylthiazol-2-yl)ethanone]
1000 to 5000 | Cn1cc(-c2nnc(C(=O)N3CCc4[nH]cnc4[C@@H]3c3nc4ccccc4s3)o2)cn1 [Example 1461, (R)-(4-(benzo[d]thiazol-2-yl)-6,7-dihydro-1H-imidazo[4,5-c]pyridin-5(4H)-yl)(5-(1-methyl-1H-pyrazol-4-yl)-1,3,4-oxadiazol-2-yl)methanone]
1000 to 5000 | Cn1cc(-c2nnc(C(=O)N3CCc4[nH]cnc4[C@H]3c3nc4ccccc4s3)o2)cn1 [Example 1462]
< 500 | CC(C)(F)c1ncc(C(=O)N2CCc3[nH]cnc3[C@H]2c2nc3ccccc3s2)s1 [Example 1463]
1000 to 5000 | CC(C)(F)c1ncc(C(=O)N2CCc3[nH]cnc3[C@@H]2c2nc3ccccc3s2)s1 [Example 1464, (R)-(4-(benzo[d]thiazol-2-yl)-6,7-dihydro-1H-imidazo[4,5-c]pyridin-5(4H)-yl)(2-(2-fluoropropan-2-yl)thiazol-5-yl)methanone]
< 500 | Cc1nc(C(C)(C)O)oc1C(=O)N1CCc2[nH]cnc2[C@H]1c1nc2ccccc2s1 [Example 1469]
> 5000 | Cc1nc(C(C)(C)O)oc1C(=O)N1CCc2[nH]cnc2[C@@H]1c1nc2ccccc2s1 [Example 1470, (R)-(4-(benzo[d]thiazol-2-yl)-6,7-dihydro-1H-imidazo[4,5-c]pyridin-5(4H)-yl)(2-(2-hydroxypropan-2-yl)-4-methyloxazol-5-yl)methanone]
< 500 | CC(C)(O)c1ccc2c(C(=O)N3CCc4[nH]cnc4[C@H]3c3nc4ccccc4s3)cnn2c1 [Example 1473]
1000 to 5000 | CC(C)(O)c1ccc2c(C(=O)N3CCc4[nH]cnc4[C@@H]3c3nc4ccccc4s3)cnn2c1 [Example 1474, (R)-(4-(benzo[d]thiazol-2-yl)-6,7-dihydro-1H-imidazo[4,5-c]pyridin-5(4H)-yl)(6-(2-hydroxypropan-2-yl)pyrazolo[1,5-a]pyridin-3-yl)methanone]
1000 to 5000 | CC(C)(O)c1c(Br)ccc2c(C(=O)N3CCc4[nH]cnc4[C@@H]3c3nc4ccccc4s3)cnn12 [Example 1476, (R)-(4-(benzo[d]thiazol-2-yl)-6,7-dihydro-1H-imidazo[4,5-c]pyridin-5(4H)-yl)(6-bromo-7-(2-hydroxypropan-2-yl)pyrazolo[1,5-a]pyridin-3-yl)methanone]
< 500 | CC(C)(F)c1ccc2c(C(=O)N3CCc4[nH]cnc4[C@H]3c3nc4ccccc4s3)cnn2c1 [Example 1479]
1000 to 5000 | CC(C)(F)c1ccc2c(C(=O)N3CCc4[nH]cnc4[C@@H]3c3nc4ccccc4s3)cnn2c1 [Example 1480, (R)-(4-(benzo[d]thiazol-2-yl)-6,7-dihydro-1H-imidazo[4,5-c]pyridin-5(4H)-yl)(6-(2-fluoropropan-2-yl)pyrazolo[1,5-a]pyridin-3-yl)methanone]
< 500 | CC(C)(O)c1cccc2c(C(=O)N3CCc4[nH]cnc4[C@H]3c3nc4ccccc4s3)cnn12 [Example 1481]
1000 to 5000 | CC(C)(O)c1cccc2c(C(=O)N3CCc4[nH]cnc4[C@@H]3c3nc4ccccc4s3)cnn12 [Example 1482, (R)-(4-(benzo[d]thiazol-2-yl)-6,7-dihydro-1H-imidazo[4,5-c]pyridin-5(4H)-yl)(7-(2-hydroxypropan-2-yl)pyrazolo[1,5-a]pyridin-3-yl)methanone]
